From patent US20260355323A1, “CEREBLON-RECRUITING BCL-XL/BCL-2 DUAL DEGRADERS” (University of Florida Research Foundation, Incorporated, priority 2022, published 2026)

Experiments:
[1] = tested on: WI-38 NC; experiment: Senolytic activity, cell viability (PrestoBlue HS), WI-38 NC; format: cell-based; conditions: Homo sapiens, 72 h
Experimental: WI-38 and HUVEC cells were incubated with increasing concentrations of degraders for 72 h. Cell viability was measured using PrestoBlue HS cell viability reagent.

[2] = tested on: MOLT-4 acute lymphoblastic leukemia cells; experiment: Cell viability, tetrazolium-based MTS assay, MOLT-4; conditions: Homo sapiens, MOLT-4, 48 h; read-out: Anti-Cancer Activity EC50 (48 hr), MOLT-4
Experimental: (§1) Acute lymphoblastic leukemia cells (MOLT-4 and RS4;11) were incubated with increasing concentrations of Bcl-xL/Bcl-2 degraders for 48 h. Cell viability was measured by tetrazolium-based MTS assay.

[3] = tested on: RS4;11 acute lymphoblastic leukemia cells; experiment: Cell viability, tetrazolium-based MTS assay, RS4;11; conditions: Homo sapiens, RS4;11, 48 h, read-out: Anti-Cancer Activity EC50 (48 hr), RS4
Experimental: as §1

SMILES: C[C@@]1(CN2CCN(C(=O)CCCCCN3CCN(c4ccc5c(c4)CN(C4CCC(=O)NC4=O)C5=O)CC3)CC2)CCC(c2ccc(Cl)cc2)=C(CN2CCN(c3ccc(C(=O)NS(=O)(=O)c4ccc(N[C@H](CCN5CCCOCC5)CSc5ccccc5)c(S(=O)(=O)C(F)(F)F)c4)cc3)CC2)C1 (stereo partly drawn) [Compound 3, N-((4-(((R)-4-(1,4-oxazepan-4-yl)-1-(phenylthio)butan-2-yl)amino)-3-((trifluoromethyl)sulfonyl)phenyl)sulfonyl)-4-(4-(((4R)-4′-chloro-4-((4-(6-(4-(2-(2,6-dioxopiperidin-3-yl)-1-oxoisoindolin-5-yl)piperazin-1-yl)hexanoyl)piperazin-1-yl)methyl)-4-methyl-3,4,5,6-tetrahydro-[1,1′-biphenyl]-2-yl)methyl)piperazin-1-yl)benzamide]
- EC50 [1]: > 10 µM
- EC50 [2]: < 0.001 µM
- EC50 [3]: < 0.001 µM

SMILES: CC1(CN2CCN(c3ncc(C(=O)NCCNc4cccc5c4C(=O)N(C4CCC(=O)NC4=O)C5=O)cn3)CC2)CCC(c2ccc(Cl)cc2)=C(CN2CCN(c3ccc(C(=O)NS(=O)(=O)c4ccc(N[C@H](CCN5CCOCC5)CSc5ccccc5)c(S(=O)(=O)C(F)(F)F)c4)cc3)CC2)C1 (stereo partly drawn) [Compound 19, 2-(4-((4′-chloro-4-methyl-6-((4-(4-(((4-(((R)-4-morpholino-1-(phenylthio)butan-2-yl)amino)-3-((trifluoromethyl)sulfonyl)phenyl)sulfonyl)carbamoyl)phenyl)piperazin-1-yl)methyl)-2,3,4,5-tetrahydro-[1,1′-biphenyl]-4-yl)methyl)piperazin-1-yl)-N-(2-((2-(2,6-dioxopiperidin-3-yl)-1,3-dioxoisoindolin-4-yl)amino)ethyl)pyrimidine-5-carboxamide]
- EC50 [2]: 0.001 to 0.01 µM
- EC50 [3]: 0.01 to 0.1 µM

SMILES: CC1(CN2CCN(c3ncc(C(=O)NCCCCNc4cccc5c4C(=O)N(C4CCC(=O)NC4=O)C5=O)cn3)CC2)CCC(c2ccc(Cl)cc2)=C(CN2CCN(c3ccc(C(=O)NS(=O)(=O)c4ccc(N[C@H](CCN5CCOCC5)CSc5ccccc5)c(S(=O)(=O)C(F)(F)F)c4)cc3)CC2)C1 (stereo partly drawn) [Compound 20, 2-(4-((4′-chloro-4-methyl-6-((4-(4-(((4-(((R)-4-morpholino-1-(phenylthio)butan-2-yl)amino)-3-((trifluoromethyl)sulfonyl)phenyl)sulfonyl)carbamoyl)phenyl)piperazin-1-yl)methyl)-2,3,4,5-tetrahydro-[1,1′-biphenyl]-4-yl)methyl)piperazin-1-yl)-N-(4-((2-(2,6-dioxopiperidin-3-yl)-1,3-dioxoisoindolin-4-yl)amino)butyl)pyrimidine-5-carboxamide]
- EC50 [2]: 0.001 to 0.01 µM
- EC50 [3]: 0.01 to 0.1 µM

SMILES: CC1(CN2CCN(c3ncc(C(=O)NCCCCCCNc4cccc5c4C(=O)N(C4CCC(=O)NC4=O)C5=O)cn3)CC2)CCC(c2ccc(Cl)cc2)=C(CN2CCN(c3ccc(C(=O)NS(=O)(=O)c4ccc(N[C@H](CCN5CCOCC5)CSc5ccccc5)c(S(=O)(=O)C(F)(F)F)c4)cc3)CC2)C1 (stereo partly drawn) [Compound 21, 2-(4-((4′-chloro-4-methyl-6-((4-(4-(((4-(((R)-4-morpholino-1-(phenylthio)butan-2-yl)amino)-3-((trifluoromethyl)sulfonyl)phenyl)sulfonyl)carbamoyl)phenyl)piperazin-1-yl)methyl)-2,3,4,5-tetrahydro-[1,1′-biphenyl]-4-yl)methyl)piperazin-1-yl)-N-(6-((2-(2,6-dioxopiperidin-3-yl)-1,3-dioxoisoindolin-4-yl)amino)hexyl)pyrimidine-5-carboxamide]
- EC50 [2]: 0.01 to 0.1 µM
- IC50 [3]: 10 to 100 µM

SMILES: CC1(CN2CCN(c3ccc(OCCCCCN4CCN(c5cccc6c5C(=O)N(C5CCC(=O)NC5=O)C6=O)CC4)cn3)CC2)CCC(c2ccc(Cl)cc2)=C(CN2CCN(c3ccc(C(=O)NS(=O)(=O)c4ccc(N[C@H](CCN5CCOCC5)CSc5ccccc5)c(S(=O)(=O)C(F)(F)F)c4)cc3)CC2)C1 (stereo partly drawn) [Compound 22, 4-(4-((4′-chloro-4-((4-(5-((5-(4-(2-(2,6-dioxopiperidin-3-yl)-1,3-dioxoisoindolin-4-yl)piperazin-1-yl)pentyl)oxy)pyridin-2-yl)piperazin-1-yl)methyl)-4-methyl-3,4,5,6-tetrahydro-[1,1′-biphenyl]-2-yl)methyl)piperazin-1-yl)-N-((4-(((R)-4-morpholino-1-(phenylthio)butan-2-yl)amino)-3-22 ((trifluoromethyl)sulfonyl)phenyl)sulfonyl)benzamide]
- EC50 [2]: 0.01 to 0.1 µM
- EC50 [3]: 0.01 to 0.1 µM

SMILES: CC1(CN2CCN(c3ccc(C#CCCCN4CCN(c5cccc6c5C(=O)N(C5CCC(=O)NC5=O)C6=O)CC4)cn3)CC2)CCC(c2ccc(Cl)cc2)=C(CN2CCN(c3ccc(C(=O)NS(=O)(=O)c4ccc(N[C@H](CCN5CCOCC5)CSc5ccccc5)c(S(=O)(=O)C(F)(F)F)c4)cc3)CC2)C1 (stereo partly drawn) [Compound 23, 4-(4-((4′-chloro-4-((4-(5-(5-(4-(2-(2,6-dioxopiperidin-3-yl)-1,3-26 dioxoisoindolin-4-yl)piperazin-1-yl)pent-1-yn-1-yl)pyridin-2-yl)piperazin-1-yl)methyl)-4-methyl-3,4,5,6-tetrahydro-[1,1′-biphenyl]-2-yl)methyl)piperazin-1-yl)-N-((4-(((R)-4-morpholino-1-(phenylthio)butan-2-yl)amino)-3-28 ((trifluoromethyl)sulfonyl)phenyl)sulfonyl)benzamide]
- EC50 [2]: 10 to 100 µM
- EC50 [3]: 0.01 to 0.1 µM

SMILES: CC1(CN2CCCN(c3ccc4c(c3)CN(C3CCC(=O)NC3=O)C4=O)CC2)CCN(C[C@]2(C)CCC(c3ccc(Cl)cc3)=C(CN3CCN(c4ccc(C(=O)NS(=O)(=O)c5ccc(N[C@H](CCN6CCCOCC6)CSc6ccccc6)c(S(=O)(=O)C(F)(F)F)c5)cc4)CC3)C2)CC1 (stereo partly drawn) [Compound 136, N-((4-(((R)-4-(1,4-oxazepan-4-yl)-1-(phenylthio)butan-2-yl)amino)-3-((trifluoromethyl)sulfonyl)phenyl)sulfonyl)-4-(4-(((4R)-4′-chloro-4-((4-((4-(2-(2,6-dioxopiperidin-3-yl)-1-oxoisoindolin-5-yl)-1,4-diazepan-1-yl)methyl)-4-methylpiperidin-1-yl)methyl)-4-methyl-3,4,5,6-tetrahydro-[1,1′-biphenyl]-2-yl)methyl)piperazin-1-yl)benzamide]
- EC50 [2]: < 0.001 µM
- EC50 [3]: < 0.001 µM

SMILES: C[C@@]1(CN2CCC(CN3CCN(c4ccc(C(=O)N[C@H]5CCC(=O)NC5=O)c(F)c4)CC3)CC2)CCC(c2ccc(Cl)cc2)=C(CN2CCN(c3ccc(C(=O)NS(=O)(=O)c4ccc(N[C@H](CCN5CCCOCC5)CSc5ccccc5)c(S(=O)(=O)C(F)(F)F)c4)cc3)CC2)C1 [Compound 137, 4-(4-((1-(((R)-6-((4-(4-(((4-(((R)-4-(1,4-oxazepan-4-yl)-1-(phenylthio)butan-2-yl)amino)-3-((trifluoromethyl)sulfonyl)phenyl)sulfonyl)carbamoyl)phenyl)piperazin-1-yl)methyl)-4′-chloro-4-methyl-2,3,4,5-tetrahydro-[1,1′-biphenyl]-4-yl)methyl)piperidin-4-yl)methyl)piperazin-1-yl)-N-((S)-2,6-dioxopiperidin-3-yl)-2-fluorobenzamide]
- EC50 [2]: 0.001 to 0.01 µM
- EC50 [3]: 0.001 to 0.01 µM

SMILES: C[C@@]1(CN2CCC(CN3CCN(c4ccc(C(=O)N[C@@H]5CCC(=O)NC5=O)c(F)c4)CC3)CC2)CCC(c2ccc(Cl)cc2)=C(CN2CCN(c3ccc(C(=O)NS(=O)(=O)c4ccc(N[C@H](CCN5CCCOCC5)CSc5ccccc5)c(S(=O)(=O)C(F)(F)F)c4)cc3)CC2)C1 [Compound 138, 4-(4-((1-(((R)-6-((4-(4-(((4-(((R)-4-(1,4-oxazepan-4-yl)-1-(phenylthio)butan-2-yl)amino)-3-((trifluoromethyl)sulfonyl)phenyl)sulfonyl)carbamoyl)phenyl)piperazin-1-yl)methyl)-4′-chloro-4-methyl-2,3,4,5-tetrahydro-[1,1′-biphenyl]-4-yl)methyl)piperidin-4-yl)methyl)piperazin-1-yl)-N-((R)-2,6-dioxopiperidin-3-yl)-2-fluorobenzamide]
- EC50 [2]: 0.001 to 0.01 µM
- EC50 [3]: 0.001 to 0.01 µM

SMILES: C[C@@]1(CN2CCC(CN3CCN(c4ccc(C(=O)N[C@H]5CCC(=O)NC5=O)cc4)CC3)CC2)CCC(c2ccc(Cl)cc2)=C(CN2CCN(c3ccc(C(=O)NS(=O)(=O)c4ccc(N[C@H](CCN5CCCOCC5)CSc5ccccc5)c(S(=O)(=O)C(F)(F)F)c4)cc3)CC2)C1 [Compound 139, N-((4-(((R)-4-(1,4-oxazepan-4-yl)-1-(phenylthio)butan-2-yl)amino)-3-((trifluoromethyl)sulfonyl)phenyl)sulfonyl)-4-(4-(((R)-4′-chloro-4-((4-((4-(4-(((S)-2,6-dioxopiperidin-3-yl)carbamoyl)phenyl)piperazin-1-yl)methyl)piperidin-1-yl)methyl)-4-methyl-3,4,5,6-tetrahydro-[1,1′-biphenyl]-2-yl)methyl)piperazin-1-yl)benzamide]
- EC50 [2]: 0.001 to 0.01 µM
- EC50 [3]: 0.001 to 0.01 µM

SMILES: C[C@@]1(CN2CCN(c3ccc(NC4CCC(=O)NC4=O)cc3F)CC2)CCC(c2ccc(Cl)cc2)=C(CN2CCN(c3ccc(C(=O)NS(=O)(=O)c4ccc(N[C@H](CCN5CCCOCC5)CSc5ccccc5)c(S(=O)(=O)C(F)(F)F)c4)cc3)CC2)C1 (stereo partly drawn) [Compound 140, N-((4-(((R)-4-(1,4-oxazepan-4-yl)-1-(phenylthio)butan-2-yl)amino)-3-((trifluoromethyl)sulfonyl)phenyl)sulfonyl)-4-(4-(((4R)-4′-chloro-4-((4-(4-((2,6-dioxopiperidin-3-yl)amino)-2-fluorophenyl)piperazin-1-yl)methyl)-4-methyl-3,4,5,6-tetrahydro-[1,1′-biphenyl]-2-yl)methyl)piperazin-1-yl)benzamide]
- EC50 [2]: 0.001 to 0.01 µM
- EC50 [3]: 0.01 to 0.1 µM
